# Results reported in ChEMBL document CHEMBL1136658, “Design and synthesis of potent, non-peptide inhibitors of HCV NS3 protease” (Bioorg Med Chem Lett, 2003).
# Peptide text beside a SMILES is read from it. * marks the point of attachment. X1 = C=CC[C@H](N*)B1OC2CC3CC(C3(C)C)[C@@]2(C)O1
# Target: T1, NS3 (Hepatitis C virus, UniProt A3EZJ3)
# Assay: Inhibitory concentration against HCV NS3 protease was determined
# Set-up: species or system Hepacivirus hominis
# T1 sequence (A3EZJ3 whole entry): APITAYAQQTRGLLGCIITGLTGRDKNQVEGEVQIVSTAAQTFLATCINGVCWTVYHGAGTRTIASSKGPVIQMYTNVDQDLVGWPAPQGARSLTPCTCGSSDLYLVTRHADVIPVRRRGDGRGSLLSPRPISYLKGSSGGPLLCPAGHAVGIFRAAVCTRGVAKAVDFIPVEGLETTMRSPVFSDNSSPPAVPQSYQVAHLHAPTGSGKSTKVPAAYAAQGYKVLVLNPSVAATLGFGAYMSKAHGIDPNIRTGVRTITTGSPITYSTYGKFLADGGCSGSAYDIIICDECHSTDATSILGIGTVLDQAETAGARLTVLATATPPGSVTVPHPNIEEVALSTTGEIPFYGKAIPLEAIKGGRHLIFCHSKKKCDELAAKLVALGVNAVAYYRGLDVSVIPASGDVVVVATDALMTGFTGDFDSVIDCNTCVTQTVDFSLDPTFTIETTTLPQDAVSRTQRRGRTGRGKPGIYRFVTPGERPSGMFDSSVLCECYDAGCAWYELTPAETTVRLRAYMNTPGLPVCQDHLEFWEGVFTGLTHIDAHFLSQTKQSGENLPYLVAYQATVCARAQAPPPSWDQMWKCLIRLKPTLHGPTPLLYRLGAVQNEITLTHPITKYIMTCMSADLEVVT
row,Ki [nM],Compound
1,4,C=CC[C@H](NC(=O)[C@@H]1CCCN1C(=O)[C@@H](NC(=O)[C@@H](NC(=O)[C@H](CCC(=O)O)NC(=O)[C@H](CC(=O)O)NC(C)=O)C(C)C)C(C)C)B1OC2CC3CC(C3(C)C)[C@@]2(C)O1 (stereo not given in full) (Ac-DEVVP-X1)

# Target: T1, NS3
# Assay: Inhibitory concentration against HCV NS3 protease.
# Set-up: species or system Hepacivirus hominis
row,Compound,IC50 [nM]
1,C=CC[C@H](NC(=O)[C@@H]1C[C@@H](CCCc2ccc3ccccc3c2)c2c(Cl)nc(NCC3CCCCC3)c(=O)n21)B1OC2CC3CC(C3(C)C)[C@@]2(C)O1 (stereo not given in full),200
2,C=CC[C@H](NC(=O)[C@@H]1CCc2c(Cl)nc(NCc3cccc(C(F)(F)F)c3)c(=O)n21)B1OC2CC3CC(C3(C)C)[C@@]2(C)O1 (stereo not given in full),4600
3,C=CC[C@H](NC(=O)[C@@H]1C[C@@H](CCCc2ccc3ccccc3c2)c2c(Cl)nc(NC)c(=O)n21)B1OC2CC3CC(C3(C)C)[C@@]2(C)O1 (stereo not given in full),320
4,C=CC[C@H](NC(=O)[C@@H]1C[C@@H](Cc2cccc(C)c2)c2c(Cl)nc(NCc3cccc(C(F)(F)F)c3)c(=O)n21)B1OC2CC3CC(C3(C)C)[C@@]2(C)O1 (stereo not given in full),400
5,C=CC[C@H](NC(=O)[C@@H]1C[C@H](CCCc2ccc3ccccc3c2)c2c(Cl)nc(NCc3cccc(C(F)(F)F)c3)c(=O)n21)B1OC2CC3CC(C3(C)C)[C@@]2(C)O1 (stereo not given in full),510
6,C=CC[C@H](NC(=O)[C@@H]1C[C@@H](CCCc2ccc3ccccc3c2)c2c(Cl)nc(NCc3ccccc3)c(=O)n21)B1OC2CC3CC(C3(C)C)[C@@]2(C)O1 (stereo not given in full),240
7,C=CC[C@H](NC(=O)[C@@H]1C[C@@H](CCCc2cccc3ccccc23)c2c(Cl)nc(NCC)c(=O)n21)B1OC2CC3CC(C3(C)C)[C@@]2(C)O1 (stereo not given in full),230
8,C=CC[C@H](NC(=O)[C@@H]1C[C@@H](Cc2ccccc2)c2c(Cl)nc(NCc3cccc(C(F)(F)F)c3)c(=O)n21)B1OC2CC3CC(C3(C)C)[C@@]2(C)O1 (stereo not given in full),260
9,C=CC[C@H](NC(=O)[C@@H]1C[C@H](CCCc2ccccc2)c2c(Cl)nc(NCc3cccc(C(F)(F)F)c3)c(=O)n21)B1OC2CC3CC(C3(C)C)[C@@]2(C)O1 (stereo not given in full),2000
10,C=CC[C@H](NC(=O)[C@@H]1C[C@@H](Cc2cccc(OC)c2)c2c(Cl)nc(NCc3cccc(C(F)(F)F)c3)c(=O)n21)B1OC2CC3CC(C3(C)C)[C@@]2(C)O1 (stereo not given in full),260

# Other lines, results leading:
row,IC50 [nM],Compound
1,190,C=CC[C@H](NC(=O)[C@@H]1C[C@@H](CCCc2ccc3ccccc3c2)c2c(Cl)nc(N)c(=O)n21)B1OC2CC3CC(C3(C)C)[C@@]2(C)O1 (stereo not given in full)
2,180,C=CC[C@H](NC(=O)[C@@H]1C[C@@H](CCCc2cccc3ccccc23)c2c(Cl)nc(NCCC)c(=O)n21)B1OC2CC3CC(C3(C)C)[C@@]2(C)O1 (stereo not given in full)
3,170,C=CC[C@H](NC(=O)[C@@H]1C[C@@H](CCCc2cccc3ccccc23)c2c(Cl)nc(NCC(C)C)c(=O)n21)B1OC2CC3CC(C3(C)C)[C@@]2(C)O1 (stereo not given in full)
4,160,C=CC[C@H](NC(=O)[C@@H]1C[C@@H](CCCc2ccc3ccccc3c2)c2c(Cl)nc(NCCCC)c(=O)n21)B1OC2CC3CC(C3(C)C)[C@@]2(C)O1 (stereo not given in full)
5,110,C=CC[C@H](NC(=O)[C@@H]1C[C@@H](CCCc2cccc3ccccc23)c2c(Cl)nc(NCc3ccc(O)c(O)c3)c(=O)n21)B1OC2CC3CC(C3(C)C)[C@@]2(C)O1 (stereo not given in full)
6,90,C=CC[C@H](NC(=O)[C@@H]1C[C@@H](CCCc2ccc3ccccc3c2)c2c(Cl)nc(NCc3ccccn3)c(=O)n21)B1OC2CC3CC(C3(C)C)[C@@]2(C)O1 (stereo not given in full)
7,60,C=CC[C@H](NC(=O)[C@@H]1C[C@@H](Cc2ccc(C)cc2)c2c(Cl)nc(NCc3cccc(C(F)(F)F)c3)c(=O)n21)B1OC2CC3CC(C3(C)C)[C@@]2(C)O1 (stereo not given in full)
8,60,C=CC[C@H](NC(=O)[C@@H]1C[C@@H](Cc2ccc(-c3ccccc3)cc2)c2c(Cl)nc(NCc3cccc(C(F)(F)F)c3)c(=O)n21)B1OC2CC3CC(C3(C)C)[C@@]2(C)O1 (stereo not given in full)
9,60,C=CC[C@H](NC(=O)[C@@H]1C[C@@H](CCCc2cccc3ccccc23)c2c(Cl)nc(NCc3cccc(F)c3)c(=O)n21)B1OC2CC3CC(C3(C)C)[C@@]2(C)O1 (stereo not given in full)
10,60,C=CC[C@H](NC(=O)[C@@H]1C[C@@H](CCCc2ccc3ccccc3c2)c2c(Cl)nc(NCc3cccc(OC)c3)c(=O)n21)B1OC2CC3CC(C3(C)C)[C@@]2(C)O1 (stereo not given in full)
11,60,C=CC[C@H](NC(=O)[C@@H]1C[C@@H](CCCc2ccccc2)c2c(Cl)nc(NCc3cccc(C(F)(F)F)c3)c(=O)n21)B1OC2CC3CC(C3(C)C)[C@@]2(C)O1 (stereo not given in full)
12,50,C=CC[C@H](NC(=O)[C@@H]1C[C@@H](Cc2ccc(OC)cc2)c2c(Cl)nc(NCc3cccc(C(F)(F)F)c3)c(=O)n21)B1OC2CC3CC(C3(C)C)[C@@]2(C)O1 (stereo not given in full)
13,20,C=CC[C@H](NC(=O)[C@@H]1C[C@@H](CCCc2ccc3ccccc3c2)c2c(Cl)nc(NCc3cccc(C(F)(F)F)c3)c(=O)n21)B1OC2CC3CC(C3(C)C)[C@@]2(C)O1 (stereo not given in full)
14,20,CC[C@H](NC(=O)[C@@H]1C[C@@H](CCCc2ccc3ccccc3c2)c2c(Cl)nc(NCc3cccc(C(F)(F)F)c3)c(=O)n21)B1OC2CC3CC(C3(C)C)[C@@]2(C)O1 (stereo not given in full)
